Measurements from patent US20120289563A1, “COMBINATIONS OF IMIDAFENACIN AND SALIVARY STIMULANTS FOR THE TREATMENT OF OVERACTIVE BLADDER” (THERAVIDA, INC., priority 2011, published 2012).

What was measured:
[1] = Pilot human study of saliva flow rate (Parafilm chewed for 2 minutes, saliva weighed); assay type: in vivo; details: 0.1 mg Uritos; single subject
Description: In this study, the effect of imidafenacin (Uritos®), pilocarpine, the combination of the two, and placebo was measured in separate, yet identical, studies in a single individual.
The following protocol was for a pilot human study to evaluate the extent of saliva flow rate following the administration of 0.1 mg Uritos® tablet and 5 or 10 mg pilocarpine HCl tablet after about 0.5 or 3 hrs from imidafenacin administration. The subject was a healthy, person. The subject performed the following: • 1. Fast the night before. • 2. No coffee or soda 8 hrs prior to taking the first dose. • 3. Record time voiding and measure urine if possible. • 4. Record extent of dryness of the mouth (Very dry, dry, and not dry). • 5. Record any adverse event. • 6. Chew a 1″×1″ piece of Parafilm (American National Can (Neenah, Wis. 54956) Bar code No. 7-466676999) over 2 minutes. • 7. Collect wetted Parafilm and saliva into a tared container (pre-weighed container). • 8. Measure the amount of saliva collected. • 9. Plot Saliva collected per 2 min time intervals against time.
The subject fasted overnight, but had 240 mL of water 1 hr prior to dose. The water continued ad lib until 1 hr pre and 1 hr post dose, other than 120 mL with Uritos® and 120 mL with 5 mg Salagen tablet. For lunch, the subject consumed a light sandwich. No coffee, soda, or caffeinated or alcoholic beverages was consumed. […]

[2] = 5 mg of pilocarpine; cited from earlier work

| Compound | Time of maximum dry mouth / maximum saliva depression point after administration [1] | Time of maximum saliva output after administration [2] |
| --- | --- | --- |
| Cc1nccn1CCC(C(N)=O)(c1ccccc1)c1ccccc1 [imidafenacin, 4-(2-methyl-1H-imidazol-1-yl)-2,2-diphenylbutanamide] | about 5 hours |  |
| CC[C@@H]1C(=O)OC[C@@H]1Cc1cncn1C [pilocarpine] |  | about 30 minutes |
